“Also recorded” adds a separate entry of the source. Values belong to the compound of their own block, whether it stands above or below them.
What was measured:
THR-β [1] = biological target: T1, THR-β (Homo sapiens, UniProt P10828); experiment: Agonistic activity toward the thyroxine receptor beta; assay type: biochemical
T1 sequence (P10828 1-461): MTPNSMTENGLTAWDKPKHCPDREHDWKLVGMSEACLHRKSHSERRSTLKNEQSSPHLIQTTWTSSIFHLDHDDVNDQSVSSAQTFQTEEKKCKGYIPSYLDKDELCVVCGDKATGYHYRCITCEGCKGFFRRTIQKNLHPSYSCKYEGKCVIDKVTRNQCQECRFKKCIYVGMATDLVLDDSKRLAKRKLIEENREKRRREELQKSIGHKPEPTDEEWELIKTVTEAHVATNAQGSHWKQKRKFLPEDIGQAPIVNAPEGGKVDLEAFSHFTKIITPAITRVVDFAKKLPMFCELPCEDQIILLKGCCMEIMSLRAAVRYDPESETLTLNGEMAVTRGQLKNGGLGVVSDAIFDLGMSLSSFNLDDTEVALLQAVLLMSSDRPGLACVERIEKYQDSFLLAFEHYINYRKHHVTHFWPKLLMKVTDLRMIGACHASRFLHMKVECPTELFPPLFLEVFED

[2] = pH and solubilizer effect on solubility; assay type: physicochemical; conditions: potassium salt; for solubility at 24 h: 25 °C, thermodynamic from solid
Procedure: Solubility of compound 2 (potassium salt) was evaluated at various pH levels.

[3] = Capsule pharmacokinetics in beagle dogs; assay type: in vivo, dog
Procedure: To determine the effect of the solubilizer on the uptake of compound 2, 50 mg (based on free acid) Compound 2 was formulated in a capsule with or without 5 wt % SLS (see Table 10) and was administered to fasted beagle dogs pre-treated with pentagastrin (6 μg/kg, administered by intramuscular injection 30±2 minutes prior to administration of compound 2). The plasma concentration of compound 2 was measured over 24 hours (see FIG. 9).
To determine the pH effect on PK performance, beagle dogs were divided into two groups (n=3 per group). For group 1, dogs were pre-treated with pentagastrin (6 μg/kg, intramuscular injection 30±2 minutes prior to administration of compound 2). For group 2, dogs were pre-treated with famotidine (2 tablets, 20 mg/tablet, oral administration 180±10 minutes prior to administration of compound 2). Compound 2 (10 mg capsule, 5% SLS) was administered, and plasma concentrations of compound 2 were monitored for 24 h and are depicted in FIG. 10. […] To determine the food effect on PK performance, beagle dogs were divided into two groups (n=3 per group). For the fasted group, dogs were fasted overnight through 4-hours post dosing. For the fed group, dogs were fed high fat food 30 minutes prior to administration. Plasma concentrations of compound 2 were monitored for 24 h. Compound 2 (10 mg capsule, 5% SLS) was administered, and plasma concentrations of compound 2 were monitored for 24 h and are depicted in FIG. 11.

THR-β [4] = biological target: T1, THR-β; experiment: Binding activity to the thyroxine receptor beta
SSAO = biological target: T2, SSAO (Homo sapiens, UniProt Q16853); experiment: Plasma SSAO/amine oxidase activity and methylamine after a single dose of Compound 1; assay type: in vivo
T2 construct: from tissue; host or cells: human plasma from dosed participants
T2 sequence (Q16853 29-763 limits assumed): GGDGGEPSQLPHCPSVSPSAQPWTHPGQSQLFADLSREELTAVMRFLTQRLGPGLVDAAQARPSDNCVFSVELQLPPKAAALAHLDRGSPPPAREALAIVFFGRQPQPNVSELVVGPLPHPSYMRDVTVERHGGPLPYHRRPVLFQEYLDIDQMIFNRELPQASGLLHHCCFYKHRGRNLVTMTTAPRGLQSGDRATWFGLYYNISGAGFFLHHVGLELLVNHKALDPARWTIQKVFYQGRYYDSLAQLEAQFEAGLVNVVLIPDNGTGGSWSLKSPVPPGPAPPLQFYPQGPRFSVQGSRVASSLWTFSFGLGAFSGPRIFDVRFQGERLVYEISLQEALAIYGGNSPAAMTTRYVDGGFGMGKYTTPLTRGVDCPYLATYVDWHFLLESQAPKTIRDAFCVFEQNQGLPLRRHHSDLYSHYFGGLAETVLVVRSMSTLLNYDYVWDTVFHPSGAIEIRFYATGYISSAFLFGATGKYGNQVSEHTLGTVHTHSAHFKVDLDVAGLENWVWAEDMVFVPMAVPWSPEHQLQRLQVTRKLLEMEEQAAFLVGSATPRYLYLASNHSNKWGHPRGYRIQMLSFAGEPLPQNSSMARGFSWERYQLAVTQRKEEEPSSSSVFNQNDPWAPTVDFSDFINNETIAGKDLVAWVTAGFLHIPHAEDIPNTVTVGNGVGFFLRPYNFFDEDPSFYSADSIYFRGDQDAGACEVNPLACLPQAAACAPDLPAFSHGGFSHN
Procedure: Safety was assessed for 7 (±3) days after dosing.
Plasma PK parameters were determined by non-compartmental analysis.
SSAO-specific amine oxidase levels in plasma were determined using a kinetic-based assay essentially as described previously (Schilter et al). Endogenous monoamine oxidases A and B were inhibited by adding pargyline to plasma samples prior to measuring H2O2 generation levels in placebo and active recipients.

Structure (SMILES): N#Cc1nn(-c2cc(Cl)c(Oc3n[nH]c(=O)c4ccccc34)c(Cl)c2)c(=O)[nH]c1=O [Compound 2, 2-(3,5-dichloro-4-((4-oxo-3,4-dihydrophthalazin-1-yl)oxy)phenyl)-3,5-dioxo-2,3,4,5-tetrahydro-1,2,4-triazine-6-carbonitrile]
- EC50 (THR-β [1]): 1750 nM
- solubility at 24 h ([2]; 0.1N HCl with 2 wt % SLS, aqueous with cosolvent or surfactant or cyclodextrin, 0.1N HCl, with 2 wt % SLS): 5.7 µg/mL
- solubility at 24 h ([2]; 0.1N HCl, simulated gastric fluid, without 2 wt % SLS): < 0.03 µg/mL
- solubility at 24 h ([2]; pH 2.0 buffer with 2 wt % SLS, pH 2, aqueous with cosolvent or surfactant or cyclodextrin, pH 2.0 buffer, with 2 wt % SLS): 5.5 µg/mL
- solubility at 24 h ([2]; pH 2.0 buffer, pH 2, aqueous buffer, without 2 wt % SLS): < 0.07 µg/mL
- solubility at 24 h ([2]; pH 4.0 buffer with 2 wt % SLS, pH 4, aqueous with cosolvent or surfactant or cyclodextrin, pH 4.0 buffer, with 2 wt % SLS): 10 µg/mL
- solubility at 24 h ([2]; pH 4.0 buffer, pH 4, aqueous buffer, without 2 wt % SLS): < 0.07 µg/mL
- solubility at 24 h ([2]; pH 6.0 buffer with 2 wt % SLS, pH 6, aqueous with cosolvent or surfactant or cyclodextrin, pH 6.0 buffer, with 2 wt % SLS): 42.3 µg/mL
- solubility at 24 h ([2]; pH 6.0 buffer, pH 6, aqueous buffer, without 2 wt % SLS): 2.2 µg/mL
- solubility at 24 h ([2]; pH 8.0 buffer with 2 wt % SLS, pH 8, aqueous with cosolvent or surfactant or cyclodextrin, pH 8.0 buffer, with 2 wt % SLS): 302 µg/mL
- solubility at 24 h ([2]; pH 8.0 buffer, pH 8, aqueous buffer, without 2 wt % SLS): 10.8 µg/mL
- solubility at 24 h ([2]; pH 10.0 buffer with 2 wt % SLS, pH 10, aqueous with cosolvent or surfactant or cyclodextrin, pH 10.0 buffer, with 2 wt % SLS): 308 µg/mL
- solubility at 24 h ([2]; pH 10.0 buffer, pH 10, aqueous buffer, without 2 wt % SLS): 10.2 µg/mL
- Solubility ([2]; pH 10.0 buffer, 24 h, with 2 wt % SLS, 25° C.): 308.2 µg/mL
- food effect on PK performance ([3]; 10 mg capsule, 5% SLS, fasted vs high fat food): delayed Compound 2 Tmax but did not have an impact on the plasma exposure
- pH effect on PK performance ([3]; 10 mg capsule, 5% SLS, pentagastrin vs famotidine pre-treatment): Minimal pH effect
- increase of exposure (Cmax, AUC) by formulation with 5 wt % SLS ([3]; 50 mg capsule with vs without 5 wt % SLS, fasted beagle dogs): more than 70%
- THR-α/-β selectivity (THR-β [4]; ratio of binding IC50): >58.8 factor
- IC50 (THR-β [4]; read-out: IC50 THR-β binding force): 170 nM

- inhibition of plasma SSAO activity (SSAO; 4 hours post-dose, all dose cohorts (1-10 mg)): Near complete inhibition
- duration of suppression of plasma SSAO activity after a single dose (SSAO; single dose 1-10 mg): up to 1 week
Structure (SMILES): COC1CCN(c2ncc(OC/C(=C/F)CN)cn2)CC1 [Compound 1, (E)-3-fluoro-2-(((2-(4-methoxypiperidin-1-yl)pyrimidin-5-yl)oxy)methyl)prop-2-en-1-amine]
- plasma methylamine (MMA) (SSAO; single dose 1-10 mg): Maximum plasma MMA levels increased; also recorded: Dose-dependent increases
